Laboratory results as given in patent US6706699B2, “Quinolines and uses thereof” (Ariad Pharmaceuticals, Inc., priority 2001, dated 2004).

Assay: Hydroxyapatite assay (hydroxyapatite adsorption chromatography, bone-targeting potential)
Format: physicochemical
Conditions: corrected retention K=(retention time−void time)/void on TSK-Gel HA 1000 column; linear gradient 10 mM to 500 mM sodium phosphate, 0.15 N NaCl, pH 6.8
Method: Hydroxyapatite is the principal mineral component of bone. Hydroxyapatite adsorption chromatography is used as an assay to evaluate the bone-targeting potential of both individual bone-targeting moieties (“monomers”) and of pharmaceuticals incorporating bone-targeting groups.
Method: The rentention time of a test compound is measured using a linear gradient from 10 mM sodium phosphate, 0.15 N NaCl, pH=6.8 to 500 mM sodium phosphate, 0.15 N NaCl, […] on a TSK-Gel HA 1000 high pressure liquid chromatography column (7.5 mm×75 mm). […] This K value is corrected using two reference compounds to correct from inter-column and inter-system variation to obtain a K′ value.
Reference Compounds: K′ values were determined for known bone targeted compounds, the bisphosphonate, alendronate and tetracycline.

K′ value: 3.7
SMILES: NCCCC(O)(P(=O)(O)O)P(=O)(O)O [Alendronate, alendronate]
